Results published in PubChem BioAssay AID1259407 (Chemical Carcinogenesis Research Information System (CCRIS), 2018).
Active and inactive are the calls of the source. The rule behind the calls is not given here.

Test system: CCRIS mutagenicity, Ames/micronucleus/aberration tests
Experiment: CCRIS mutagenicity studies
[1] = Test System: AMES SALMONELLA TYPHIMURIUM, Strain/Indicator: TA100, Metabolic Activation: NONE, Method: PREINCUBATION
[2] = Test System: AMES SALMONELLA TYPHIMURIUM, Strain/Indicator: TA100, Metabolic Activation: NONE, Method: STANDARD PLATE
[3] = Test System: AMES SALMONELLA TYPHIMURIUM, Strain/Indicator: TA98, Metabolic Activation: NONE, Method: PREINCUBATION
[4] = Test System: AMES SALMONELLA TYPHIMURIUM, Strain/Indicator: TA1535, Metabolic Activation: NONE, Method: PREINCUBATION
[5] = Test System: AMES SALMONELLA TYPHIMURIUM, Strain/Indicator: TA1537, Metabolic Activation: NONE, Method: PREINCUBATION

Measured: mutagenic call

COc1cc(C(=O)OCCCN2CCCN(CCCOC(=O)c3cc(OC)c(OC)c(OC)c3)CC2)cc(OC)c1OC
inactive: Test System: AMES SALMONELLA TYPHIMURIUM, Strain/Indicator: TA98, Metabolic Activation: NONE inactive; negative | Test System: AMES SALMONELLA TYPHIMURIUM, Strain/Indicator: TA98, Metabolic Activation: RAT, LIVER, S-9, PHENOBARBITAL AND 5,6-BENZOFLAVONE inactive; negative | Test System: AMES SALMONELLA TYPHIMURIUM, Strain/Indicator: TA100, Metabolic Activation: NONE inactive; negative | Test System: AMES SALMONELLA TYPHIMURIUM, Strain/Indicator: TA100, Metabolic Activation: RAT, LIVER, S-9, PHENOBARBITAL AND 5,6-BENZOFLAVONE inactive; negative | Test System: AMES SALMONELLA TYPHIMURIUM, Strain/Indicator: TA1535, Metabolic Activation: NONE inactive; negative | Test System: AMES SALMONELLA TYPHIMURIUM, Strain/Indicator: TA1535, Metabolic Activation: RAT, LIVER, S-9, PHENOBARBITAL AND 5,6-BENZOFLAVONE inactive; negative | Test System: AMES SALMONELLA TYPHIMURIUM, Strain/Indicator: TA1537, Metabolic Activation: NONE inactive; negative | Test System: AMES SALMONELLA TYPHIMURIUM, Strain/Indicator: TA1537, Metabolic Activation: RAT, LIVER, S-9, PHENOBARBITAL AND 5,6-BENZOFLAVONE inactive; negative | Test System: E. COLI, Strain/Indicator: WP2 UVRA, Metabolic Activation: NONE inactive; negative | Test System: E. COLI, Strain/Indicator: WP2 UVRA, Metabolic Activation: RAT, LIVER, S-9, PHENOBARBITAL AND 5,6-BENZOFLAVONE inactive; negative

Cc1cc2ccccc2c2ccc3c(c12)[C@H](O)[C@@H](O)[C@H]1O[C@@H]31
inactive: [1] inactive; negative

OC1CC=Cc2cccnc21 (stereo not given)
inactive: [2] inactive; negative | Test System: AMES SALMONELLA TYPHIMURIUM, Strain/Indicator: TA100, Metabolic Activation: RAT, LIVER, S-9, AROCLOR 1254 (10 OR 20%), Method: STANDARD PLATE inactive; negative

N.N.O=C([O-])C1(C(=O)[O-])CCC1.[Pt+4]
inactive: [3] inactive; negative | Test System: AMES SALMONELLA TYPHIMURIUM, Strain/Indicator: TA98, Metabolic Activation: NONE, Method: STANDARD PLATE inactive; negative | Test System: AMES SALMONELLA TYPHIMURIUM, Strain/Indicator: TA98, Metabolic Activation: RAT, LIVER, S-9, AROCLOR 1254, Method: STANDARD PLATE inactive; negative | Test System: AMES SALMONELLA TYPHIMURIUM, Strain/Indicator: TA98, Metabolic Activation: RAT, LIVER, S-9, PHENOBARBITAL AND 5,6-BENZOFLAVONE, Method: PREINCUBATION inactive; negative | [1] inactive; negative | [2] inactive; negative | Test System: AMES SALMONELLA TYPHIMURIUM, Strain/Indicator: TA100, Metabolic Activation: RAT, LIVER, S-9, AROCLOR 1254, Method: STANDARD PLATE inactive; negative | Test System: AMES SALMONELLA TYPHIMURIUM, Strain/Indicator: TA100, Metabolic Activation: RAT, LIVER, S-9, PHENOBARBITAL AND 5,6-BENZOFLAVONE, Method: PREINCUBATION inactive; negative | [4] inactive; negative | Test System: AMES SALMONELLA TYPHIMURIUM, Strain/Indicator: TA1535, Metabolic Activation: RAT, LIVER, S-9, PHENOBARBITAL AND 5,6-BENZOFLAVONE, Method: PREINCUBATION inactive; negative | [5] inactive; negative | Test System: AMES SALMONELLA TYPHIMURIUM, Strain/Indicator: TA1537, Metabolic Activation: RAT, LIVER, S-9, PHENOBARBITAL AND 5,6-BENZOFLAVONE, Method: PREINCUBATION inactive; negative | Test System: E.COLI, Strain/Indicator: WP2 UVRA, Metabolic Activation: NONE, Method: PREINCUBATION inactive; negative | Test System: E.COLI, Strain/Indicator: WP2 UVRA, Metabolic Activation: RAT, LIVER, S-9, PHENOBARBITAL AND 5,6-BENZOFLAVONE, Method: PREINCUBATION inactive; negative
active: Test System: AMES SALMONELLA TYPHIMURIUM, Strain/Indicator: TA102, Metabolic Activation: NONE, Method: STANDARD PLATE active; positive | Test System: AMES SALMONELLA TYPHIMURIUM, Strain/Indicator: TA102, Metabolic Activation: RAT, LIVER, S-9, AROCLOR 1254, Method: STANDARD PLATE active; positive | Test System: CHINESE HAMSTER, Strain/Indicator: V-79/6-THIOGUANINE (HGPRT), Metabolic Activation: NONE, Method: STANDARD PLATE active; positive

CC(O)CN (stereo not given)
inactive: Test System: AMES SALMONELLA TYPHIMURIUM, Strain/Indicator: TA98, Metabolic Activation: HAMSTER, LIVER, S-9, AROCLOR 1254 (10%), Method: PREINCUBATION inactive; negative | [3] inactive; negative | Test System: AMES SALMONELLA TYPHIMURIUM, Strain/Indicator: TA98, Metabolic Activation: RAT, LIVER, S-9, AROCLOR 1254 (10%), Method: PREINCUBATION inactive; negative | Test System: AMES SALMONELLA TYPHIMURIUM, Strain/Indicator: TA98, Metabolic Activation: RAT, LIVER, S-9, KC 500, Method: PREINCUBATION inactive; negative | Test System: AMES SALMONELLA TYPHIMURIUM, Strain/Indicator: TA100, Metabolic Activation: HAMSTER, LIVER, S-9, AROCLOR 1254 (10%), Method: PREINCUBATION inactive; negative | [1] inactive; negative | Test System: AMES SALMONELLA TYPHIMURIUM, Strain/Indicator: TA100, Metabolic Activation: RAT, LIVER, S-9, AROCLOR 1254 (10%), Method: PREINCUBATION inactive; negative | Test System: AMES SALMONELLA TYPHIMURIUM, Strain/Indicator: TA100, Metabolic Activation: RAT, LIVER, S-9, KC 500, Method: PREINCUBATION inactive; negative | [4] inactive; negative | Test System: AMES SALMONELLA TYPHIMURIUM, Strain/Indicator: TA1535, Metabolic Activation: RAT, LIVER, S-9, KC 500, Method: PREINCUBATION inactive; negative | Test System: AMES SALMONELLA TYPHIMURIUM, Strain/Indicator: TA1537, Metabolic Activation: HAMSTER, LIVER, S-9, AROCLOR 1254 (10%), Method: PREINCUBATION inactive; negative | [5] inactive; negative | Test System: AMES SALMONELLA TYPHIMURIUM, Strain/Indicator: TA1537, Metabolic Activation: RAT, LIVER, S-9, AROCLOR 1254 (10%), Method: PREINCUBATION inactive; negative | Test System: AMES SALMONELLA TYPHIMURIUM, Strain/Indicator: TA1537, Metabolic Activation: RAT, LIVER, S-9, KC 500, Method: PREINCUBATION inactive; negative | Test System: AMES SALMONELLA TYPHIMURIUM, Strain/Indicator: TA1538, Metabolic Activation: NONE, Method: PREINCUBATION inactive; negative | Test System: AMES SALMONELLA TYPHIMURIUM, Strain/Indicator: TA1538, Metabolic Activation: RAT, LIVER, S-9, KC 500, Method: PREINCUBATION inactive; negative | Test System: Ames Salmonella typhimurium, Strain/Indicator: TA98, Metabolic Activation: None, Method: Preincubation inactive; negative | Test System: Ames Salmonella typhimurium, Strain/Indicator: TA98, Metabolic Activation: Rat, Liver, S9, Sodium phenobarbital and 5,6-benzoflavone (10%), Method: Preincubation inactive; negative | Test System: Ames Salmonella typhimurium, Strain/Indicator: TA100, Metabolic Activation: None, Method: Preincubation inactive; negative | Test System: Ames Salmonella typhimurium, Strain/Indicator: TA100, Metabolic Activation: Rat, Liver, S9, Sodium phenobarbital and 5,6-benzoflavone (10%), Method: Preincubation inactive; negative | Test System: Ames Salmonella typhimurium, Strain/Indicator: TA1535, Metabolic Activation: None, Method: Preincubation inactive; negative | Test System: Ames Salmonella typhimurium, Strain/Indicator: TA1535, Metabolic Activation: Rat, Liver, S9, Sodium phenobarbital and 5,6-benzoflavone (10%), Method: Preincubation inactive; negative | Test System: Ames Salmonella typhimurium, Strain/Indicator: TA1537, Metabolic Activation: None, Method: Preincubation inactive; negative | Test System: Ames Salmonella typhimurium, Strain/Indicator: TA1537, Metabolic Activation: Rat, Liver, S9, Sodium phenobarbital and 5,6-benzoflavone (10%), Method: Preincubation inactive; negative | Test System: E. COLI, Strain/Indicator: WP2 UVRA, Metabolic Activation: NONE, Method: PREINCUBATION inactive; negative | Test System: E. COLI, Strain/Indicator: WP2 UVRA, Metabolic Activation: RAT, LIVER, S-9, KC 500, Method: PREINCUBATION inactive; negative | Test System: E. coli, Strain/Indicator: WP2uvrA/pKM101, Metabolic Activation: None, Method: Preincubation inactive; negative | Test System: E. coli, Strain/Indicator: WP2uvrA/pKM101, Metabolic Activation: Rat, Liver, S9, Sodium phenobarbital and 5,6-benzoflavone (10%), Method: Preincubation inactive; negative
active: Test System: AMES SALMONELLA TYPHIMURIUM, Strain/Indicator: TA1535, Metabolic Activation: HAMSTER, LIVER, S-9, AROCLOR 1254 (10%), Method: PREINCUBATION active; positive | Test System: AMES SALMONELLA TYPHIMURIUM, Strain/Indicator: TA1535, Metabolic Activation: RAT, LIVER, S-9, AROCLOR 1254 (10%), Method: PREINCUBATION active; positive
